Where two headings read alike, the source gives them in different places.
What was measured:
[1] = human, in vivo
Excerpt: In our work, we modeled metabolic autoinduction similarly to the model proposed by Zhu et al. ([2009]). We defined the term α as the ratio of the mean clearance on day 1 to the mean clearance at steady state (after autoinduction). […] For each virtual patient generated from the population pharmacokinetic model, the individual clearance at steady state was available and the clearance at day 1 was computed using CLi,t0 = α·CLi, SS. Zhu et al. ([2009]) proposed a model for time-dependent autoinduction that we used herein
(4) CLi(t)=CLi,t0+(CLi,SS-CLi,t0)·t-t0/(t-t0)+T50
where CLi(t) is the individual clearance rate at the time t and t0 is the time of the first EFV dose. CLi(0) and CLi, SS represent the clearance rates at day 1 and at steady state.

[2] = tested on: wild-type HIV; parameters: method as in Shen et al., 2008; settings: ref Shen et al., 2008, cited from earlier work
[3] = tested on: HIV Y181C mutant; parameters: method as in Sampah et al., 2011; settings: ref Sampah et al., 2011; cited from earlier work
[4] = tested on: HIV K103N mutant; parameters: method as in Sampah et al., 2011; settings: ref Sampah et al., 2011; cited from earlier work
[5] = tested on: HIV G190S mutant; parameters: method as in Sampah et al., 2011; settings: ref Sampah et al., 2011; cited from earlier work
[6] = tested on: plasma proteins (human serum albumin and α-1-acid glycoprotein); settings: cited from earlier work; for unbound fraction in human plasma (fu): ref Almond et al., 2005, Fayet et al., 2008, Burhenne et al., 2010, Avery et al., 2011, 2013a
[7] = parameters: method as in Mukonzo et al., 2009; settings: healthy men, ref Mukonzo et al., 2009, cited from earlier work
[8] = cited from earlier work; for typical population clearance value: 70kg; for typical population clearance value / relative change in apparent oral clearance vs reference genotype: ref Dickinson et al. (2015)
[9] = cited from earlier work
[10] = no reference given; cited from earlier work
[11] = in vivo; cited from earlier work
[12] = in vivo; cited from earlier work; remark: listed apart in the source
[13] = genotype GG/TC or CC/CA or AA/CC
[14] = genotype GG/TC or CC/CA or AA/CT
[15] = genotype GG/TC or CC/CC/CT or TT
[16] = genotype GT/TC or CC/CA or AA/CC
[17] = genotype GT/TC or CC/CC/CT or TT

O=C1Nc2ccc(Cl)cc2[C@@](C#CC2CC2)(C(F)(F)F)O1 [efavirenz]
α, ratio of mean clearance on day 1 to mean clearance at steady state [1]: 0.58
IC50 ([2]; corrected for protein binding): 5.4 nM
hill coefficient m (± sd) [2]: 1.69 (±0.08)
hill coefficient m as multiple of m(wt) [3]: 0.9·m(wt)
hill coefficient m as multiple of m(wt) [4]: 0.83·m(wt)
hill coefficient m as multiple of m(wt) [5]: 0.6·m(wt)
unbound fraction in human plasma (fu) [6]: ≤ 1%
unbound fraction in human plasma (fu) ([6]; listed as EFV): < 1%
fu,plasma used for IC50 correction ([6]; value used to obtain IC50plasma): 0.2%
half life ([7]; slow metabolisers): 54.7 h
half life ([7]; wild type): 37.3 h
typical population clearance value ([8]; Missing genotype): 8.7 L/h
typical population clearance value [8, 13]: 9.0 L/h
typical population clearance value [8, 14]: 11.4 L/h
typical population clearance value ([8]; genotype GG/TC or CC/CC/CC): 8.7 L/h
typical population clearance value [8, 15]: 3.5 L/h
typical population clearance value [8, 16]: 2.2 L/h
typical population clearance value ([8]; genotype GT/TC or CC/CC/CC): 5.0 L/h
typical population clearance value [8, 17]: 4.6 L/h
typical population clearance value ([8]; genotype GT/TT/CA or AA/CC): 8.2 L/h
typical population clearance value ([8]; genotype GT/TT/CA or AA/CT): 8.4 L/h
typical population clearance value ([8]; genotype GT/TT/CC/CC): 8.9 L/h
typical population clearance value ([8]; genotype GT/TT/CC/CT or TT): 8.1 L/h
typical population clearance value ([8]; genotype TT/TT/CA or AA/CC): 5.2 L/h
typical population clearance value ([8]; genotype TT/TT/CA or AA/CT): 8.9 L/h
typical population clearance value ([8]; genotype TT/TT/CC/CC): 4.0 L/h
typical population clearance value ([8]; genotype TT/TT/CC/CT or TT): 4.1 L/h
relative change in apparent oral clearance vs reference genotype ([8]; Missing genotype): 0.73
relative change in apparent oral clearance vs reference genotype [8, 13]: 0.75
relative change in apparent oral clearance vs reference genotype [8, 14]: 0.96
relative change in apparent oral clearance vs reference genotype ([8]; genotype GG/TC or CC/CC/CC): 0.73
relative change in apparent oral clearance vs reference genotype [8, 15]: 0.30
relative change in apparent oral clearance vs reference genotype [8, 16]: 0.18
relative change in apparent oral clearance vs reference genotype ([8]; genotype GT/TC or CC/CC/CC): 0.42
relative change in apparent oral clearance vs reference genotype [8, 17]: 0.39
relative change in apparent oral clearance vs reference genotype ([8]; genotype GT/TT/CA or AA/CC): 0.69
relative change in apparent oral clearance vs reference genotype ([8]; genotype GT/TT/CA or AA/CT): 0.71
relative change in apparent oral clearance vs reference genotype ([8]; genotype GT/TT/CC/CC): 0.75
relative change in apparent oral clearance vs reference genotype ([8]; genotype GT/TT/CC/CT or TT): 0.68
relative change in apparent oral clearance vs reference genotype ([8]; genotype TT/TT/CA or AA/CC): 0.44
relative change in apparent oral clearance vs reference genotype ([8]; genotype TT/TT/CA or AA/CT): 0.75
relative change in apparent oral clearance vs reference genotype ([8]; genotype TT/TT/CC/CC): 0.33
relative change in apparent oral clearance vs reference genotype ([8]; genotype TT/TT/CC/CT or TT): 0.34
absorption rate constant ka ([8]; in vivo): 0.6 h⁻¹
interindividual variability CVIIV(CLss/Fbio) ([8]; in vivo): 36.6%
interoccasion variability CVIOV(CLss/Fbio) ([8]; in vivo): 21.0%
apparent volume of distribution V/Fbio ([8]; population mean, 70 kg individual, ref Dickinson et al., 2015): 282 L
apparent oral clearance CL/Fbio (CLss/Fbio) ([8]; population value, 70 kg individual, reference (wild-type) CYP genotype, after autoinduction, ref Dickinson et al., 2015): 11.9 L/h
T50, time where the clearance rate reaches half of its steady-state value ([9]; in vivo): 245 h
average clearance on the first day ([9]; ref Zhu et al., 2009): 5.76 L/h
LogP [10]: ≈ 4
semen-to-plasma ratio of total EFV concentrations [11]: 3.4–5%
cervical fluid-to-plasma ratio of total concentrations [12]: 0.4%
